Drawing on patent US11820766B2, “Monoacylglycerol lipase modulators” (Janssen Pharmaceutica NV, priority 2018, dated 2023), this text covers IC50 for 22 compounds.

Counter-ions that a name gives are not always drawn.

The first assay addresses T1, human MGL from HeLa cells (Homo sapiens, UniProt Q99685).
T1 construct: combining endogenously expressed MGL from HeLa cells with test compounds; endogenous in cells; host or cells: HeLa cells / cell homogenates
T1 sequence (Q99685 1-303): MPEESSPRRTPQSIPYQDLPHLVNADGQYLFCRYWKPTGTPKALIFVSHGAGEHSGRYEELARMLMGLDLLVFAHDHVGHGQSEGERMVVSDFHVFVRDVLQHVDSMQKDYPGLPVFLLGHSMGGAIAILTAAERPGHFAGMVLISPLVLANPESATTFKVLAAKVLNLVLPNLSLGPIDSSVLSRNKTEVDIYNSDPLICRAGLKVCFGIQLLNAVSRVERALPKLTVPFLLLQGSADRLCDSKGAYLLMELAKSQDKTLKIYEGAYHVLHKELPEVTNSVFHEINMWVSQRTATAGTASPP
Description: In vitro MGL activity assay: [glycerol-1,3-3H]-oleyl glycerol cleavage by MGL from HeLa cells. It counts as biochemical. The note with it: 300 nM [Glycerol-1,3-3H]-oleyl glycerol, one hour. The source says: MGL is the predominant hydrolase in HeLa cells/cell homogenates.
What is called IC50 is the midpoint of a concentration-inhibition curve. The compound `C[C@H]1c2nn(C)c(-c3cccc(F)c3F)c2CCN1C(=O)c1ccc2ncccc2c1` [Example 503, [(7S)-3-(2,3-Difluorophenyl)-2,7-dimethyl-5,7-dihydro-4H-pyrazolo[3,4-c]pyridin-6-yl]-(6-quinolyl)methanone] came in with an IC50 of 22 nM.

In the case of `C[C@H]1c2nn(C)c(-c3cc(F)c(F)c(F)c3)c2CCN1C(=O)c1cccc2c1OCC(=O)N2C` [Example 591, [(7S)-2,7-8-[(7S)-2,7-Dimethyl-3-(3,4,5-trifluorophenyl)-5,7-dihydro-4H-pyrazolo[3,4-c]pyridine-6-carbonyl]-4-methyl-1,4-benzoxazin-3-one.TFA salt], the midpoint of inhibition, the IC50, lay at 4.18 nM.

On to `Cc1nc2c(F)cc(F)cn2c1C(=O)N1CCc2c(nn(C)c2-c2cc(F)c(F)c(F)c2)[C@@H]1C` [Example 410, (6,8-Difluoro-2-methyl-imidazo[1,2-a]pyridin-3-yl)-[(7S)-2,7-dimethyl-3-(3,4,5-trifluorophenyl)-5,7-dihydro-4H-pyrazolo[3,4-c]pyridin-6-yl]methanone], for which inhibition was half-maximal at 173 nM (IC50).

Consider `C[C@H]1c2nn(C)c(-c3cc(F)c(F)c(F)c3)c2CCN1C(=O)c1c(C(F)F)nc2ccccn12` [Example 412, [2-(Difluoromethyl)imidazo[1,2-a]pyridin-3-yl]-[(7S)-2,7-dimethyl-3-(3,4,5-trifluorophenyl)-5,7-dihydro-4H-pyrazolo[3,4-c]pyridin-6-yl]methanone], for which the IC50 worked out at 12.9 nM.

`C[C@H]1c2nn(C)c(-c3cccc4occc34)c2CCN1C(=O)c1ccc2ncccc2c1` [Example 535, [(7S)-3-(Benzofuran-4-yl)-2,7-dimethyl-5,7-dihydro-4H-pyrazolo[3,4-c]pyridin-6-yl]-(6-quinolyl)methanone] had an IC50 of 18.1 nM.

`Cc1nc(C(=O)N2CCc3c(nn(C)c3-c3cc(F)c(F)c(F)c3)[C@@H]2C)c2cnccn12` [Example 462, [(7S)-2,7-Dimethyl-3-(3,4,5-trifluorophenyl)-5,7-dihydro-4H-pyrazolo[3,4-c]pyridin-6-yl]-(3-methylimidazo[1,5-a]pyrazin-1-yl) methanone]: 35.4 nM corresponded to half-maximal inhibition (IC50).

Compound `C[C@H]1c2nn(C)c(-c3cc(F)cc(OC(F)F)c3)c2CCN1C(=O)c1ccc2c(c1)OCCC2` [Example 596, Chroman-7-yl-[(7S)-3-[3-(difluoromethoxy)-5-fluoro-phenyl]-2,7-dimethyl-5,7-dihydro-4H-pyrazolo[3,4-c]pyridin-6-yl]methanone] yielded an IC50 of 28.7 nM.

The compound `C[C@H]1c2nn(C)c(-c3cc(F)c(F)c(F)c3)c2CCN1C(=O)c1cnn2ccccc12` [Example 381, [(7S)-2,7-Dimethyl-3-(3,4,5-trifluorophenyl)-5,7-dihydro-4H-pyrazolo[3,4-c]pyridin-6-yl]-pyrazolo[1,5-a]pyridin-3-yl-methanone.TFA salt] had an IC50 of 10.7 nM.

Take `C[C@H]1c2nn(C)c(-c3cc(F)c(F)c(F)c3)c2CCN1C(=O)c1cccc2c1CCNC2` [Example 574, [(7S)-2,7-Dimethyl-3-(3,4,5-trifluorophenyl)-5,7-dihydro-4H-pyrazolo[3,4-c]pyridin-6-yl]-(1,2,3,4-tetrahydroisoquinolin-5-yl)methanone]: 330 nM corresponded to half-maximal inhibition (IC50).

`C[C@H]1c2nn(C)c(-c3cc(F)c(F)c(F)c3)c2CCN1C(=O)c1cccc2c1CCCO2` [Example 581, Chroman-5-yl-[(7S)-2,7-dimethyl-3-(3,4,5-trifluorophenyl)-5,7-dihydro-4H-pyrazolo[3,4-c]pyridin-6-yl]methanone] yielded an IC50 of 15.6 nM.

`C[C@H]1c2nn(C)c(-c3cc(F)c(F)c(F)c3)c2CCN1C(=O)c1nc(-c2ccccc2)cn1C` [Example 600, [(7S)-2,7-Dimethyl-3-(3,4,5-trifluorophenyl)-5,7-dihydro-4H-pyrazolo[3,4-c]pyridin-6-yl]-(1-methyl-4-phenyl-imidazol-2-yl)methanone] yielded a half-inhibitory concentration (IC50) of 110 nM.

For the compound `C[C@H]1c2nn(C)c(-c3cc(F)c(F)c(F)c3)c2CCN1C(=O)c1cccc2c1COCC2` [Example 579, [(7S)-2,7-Dimethyl-3-(3,4,5-trifluorophenyl)-5,7-dihydro-4H-pyrazolo[3,4-c]pyridin-6-yl]-isochroman-8-yl-methanone], the IC50 is 8.18 nM.

With `Cc1nn2c(c1C(=O)N1CCc3c(nn(C)c3-c3cc(F)c(F)c(F)c3)[C@@H]1C)COC(C)(C)C2` [Example 556, [(7S)-2,7-Dimethyl-3-(3,4,5-trifluorophenyl)-5,7-dihydro-4H-pyrazolo[3,4-c]pyridin-6-yl]-(2,6,6-trimethyl-4,7-dihydropyrazolo[5,1-c][1,4]oxazin-3-yl)methanone], the IC50 was 803 nM.

Turning to `C[C@H]1c2nn(C)c(-c3cc(F)c(F)c(F)c3)c2CCN1C(=O)c1cccc2[nH]nnc12` [Example 367, 1H-Benzotriazol-4-yl-[(7S)-2,7-dimethyl-3-(3,4,5-trifluorophenyl)-5,7-dihydro-4H-pyrazolo[3,4-c]pyridin-6-yl]methanone], the midpoint of inhibition, the IC50, lay at 658 nM.

Still in this assay, the particulars now being: 300 nM [Glycerol-1,3-3H]-oleyl glycerol, one hour incubation.
With `C[C@H]1c2nn(-c3ccccc3)c(-c3ccccc3)c2CCN1C(=O)c1ccc2ncccc2c1` (single isomer, unassigned) [Example 115], half-maximal inhibition (IC50) was put at 44.3 nM.

`C[C@H]1c2nn(C)c(-c3cc(F)c(F)c(F)c3)c2CCN1C(=O)c1nccc2[nH]ccc12` [Example 216, (S)-(2,7-Dimethyl-3-(3,4,5-trifluorophenyl)-2,4,5,7-tetrahydro-6H-pyrazolo[3,4-c]pyridin-6-yl)(1H-pyrrolo[3,2-c]pyridin-4-yl)methanone] came in with an IC50 of 26.2 nM.

With `Cc1nc(C(=O)N2CCc3c(nn(C)c3-c3cc(F)c(F)c(F)c3)[C@@H]2C)nn1-c1ccccc1` [Example 321, [(7S)-2,7-Dimethyl-3-(3,4,5-trifluorophenyl)-5,7-dihydro-4H-pyrazolo[3,4-c]pyridin-6-yl]-(5-methyl-1-phenyl-1,2,4-triazol-3-yl)methanone], the midpoint of inhibition, the IC50, lay at 14.8 nM.

`Cn1nc2c(c1-c1ccccc1)CCN(C(=O)c1cccc3[nH]c(C(F)(F)F)nc13)C2` [Example 72, (2-Methyl-3-phenyl-2,4,5,7-tetrahydro-6H-pyrazolo[3,4-c]pyridin-6-yl)(2-(trifluoromethyl)-1H-benzo[d]imidazol-4-yl)methanone] registered an IC50 of 2320 nM.

`Cn1nc2c(c1-c1ccccc1)CCN(C(=O)c1ccc3cncn3c1)C2` [Example 77, Imidazo[1,5-a]pyridin-6-yl(2-methyl-3-phenyl-2,4,5,7-tetrahydro-6H-pyrazolo[3,4-c]pyridin-6-yl)methanone] registered a half-inhibitory concentration (IC50) of 5160 nM.

Consider `C[C@H]1c2nn(C)c(-c3cccc(Cl)c3)c2CCN1C(=O)c1ncn(-c2ccccc2)n1` [Example 117, (S)-(3-(3-Chlorophenyl)-2,7-dimethyl-2,4,5,7-tetrahydro-6H-pyrazolo[3,4-c]pyridin-6-yl)(1-phenyl-1H-1,2,4-triazol-3-yl)methanone], for which it took 56.7 nM to reach half-maximal inhibition (IC50).

Turning to `COc1cc(Cl)cc(C(=O)N2CCc3c(nn(C)c3-c3cc(F)c(F)c(F)c3)[C@@H]2C)c1` [Example 192, (S)-(3-Chloro-5-methoxyphenyl)(2,7-dimethyl-3-(3,4,5-trifluorophenyl)-2,4,5,7-tetrahydro-6H-pyrazolo[3,4-c]pyridin-6-yl)methanone], the IC50 came out at 6.78 nM.

Take `CC1c2nn(C)c(-c3ccc4c(ccn4C)c3)c2CCN1C(=O)c1ccc2ncccc2c1` (stereo not shown) [Example 252, (2,7-Dimethyl-3-(1-methyl-1H-indol-5-yl)-2,4,5,7-tetrahydro-6H-pyrazolo[3,4-c]pyridin-6-yl)(quinolin-6-yl)methanone]: the IC50 came to 631 nM.
